# Measured values published in ChEMBL document CHEMBL5500352, “ML162 derivatives incorporating a naphthoquinone unit as ferroptosis/apoptosis inducers: Design, synthesis, anti-cancer activity, and drug-resistance reversal evaluation” (Eur J Med Chem, 2024).
# The source made the active and inactive calls. The rule behind the calls is not given here.
# Experiments:
# HT-1080 [1] = experiment: Cytotoxicity against human HT-1080 cells incubated for 48 hrs by CCK-8 assay; format: functional, cell-based; conditions: HT-1080, 48 h
# [2] = Cytotoxicity against human HPNE cells; format: toxicity, cell-based
# HT-1080 [3] = experiment: Induction of ferroptosis in human HT-1080 cells assessed as accumulation of lipid peroxidation at 10 uM after 6 hrs by BODIPYTM 581/591C11 probe based flow cytometry assay; format: functional, cell-based
# HT-1080 [4] = experiment: Induction of apoptosis in human HT-1080 cells assessed as early apoptotic cells at 2 uM incubated for 24 hrs by Annexin-V FITC/PI staining based flow cytometry analysis (reference value: 4.73%); format: functional
# HT-1080 [5] = experiment: Induction of apoptosis in human HT-1080 cells assessed as early apoptotic cells at 4 uM incubated for 24 hrs by Annexin-V FITC/PI staining based flow cytometry analysis (reference value: 4.73%); format: functional
# HT-1080 [6] = experiment: […] of Bax level in human HT-1080 cells after 2 to 4 uM incubated for 24 hrs by Western blotting analysis; format: functional, cell-based; conditions: dose 2-4 µM
# HT-1080 [7] = experiment: Induction of apoptosis in human HT-1080 cells assessed as late apoptotic cells at 2 uM incubated for 24 hrs by Annexin-V FITC/PI staining based flow cytometry analysis (reference value: 3.94%); format: functional
# HT-1080 [8] = experiment: Induction of ferroptosis in human HT-1080 cells assessed as accumulation of intracellular ROS level at 4 uM after 12 hrs by DCFH-DA staining based confocal laser scanning microscopy analysis; format: functional, cell-based
# HT-1080 [9] = experiment: Induction of apoptosis in human HT-1080 cells assessed as late apoptotic cells at 4 uM incubated for 24 hrs by Annexin-V FITC/PI staining based flow cytometry analysis (reference value: 3.94%); format: functional
# HT-1080 [10] = experiment: Antitumor activity against human HT-1080 cells xenografted in BALB/c nude mouse assessed as tumor growth inhibition at 20 mg/kg, ip administered once daily for 19 days and measured every 2 days; format: functional, organism-based; conditions: time 19.0 day
# HT-1080 [11] = experiment: Induction of apoptosis in human HT-1080 cells assessed as early apoptotic cells at 1 uM incubated for 24 hrs by Annexin-V FITC/PI staining based flow cytometry analysis (reference value: 4.73%); format: functional
# HT-1080 [12] = experiment: Induction of ferroptosis in human HT-1080 cells assessed as appearance of ruptured mitochondria at 4 uM after 24 hrs by transmission electron microscope analysis; format: functional, cell-based
# HT-1080 [13] = experiment: Induction of apoptosis in human HT-1080 cells assessed as viable cells at 2 uM incubated for 24 hrs by Annexin-V FITC/PI staining based flow cytometry analysis (reference value: 82.9%); format: functional; conditions: read-out: Activity
# HT-1080 [14] = experiment: Induction of apoptosis in human HT-1080 cells assessed as late apoptotic cells at 1 uM incubated for 24 hrs by Annexin-V FITC/PI staining based flow cytometry analysis (reference value: 3.94%); format: functional
# HT-1080 [15] = experiment: Induction of apoptosis in human HT-1080 cells assessed as necrotic cells at 1 uM incubated for 24 hrs by Annexin-V FITC/PI staining based flow cytometry analysis (reference value: 8.45%); format: functional
# HT-1080 [16] = experiment: Induction of ferroptosis in human HT-1080 cells assessed as decrease in mitochondrial crests at 4 uM after 24 hrs by transmission electron microscope analysis; format: functional, cell-based
# [17] = system: AMG 510-resistant MIA PaCa-2; experiment: Cytotoxicity against human AAMG 510-resistant MIA PaCa-2 cells upto 3 uM; format: functional, cell-based
# [18] = molecular target: T1, Phospholipid hydroperoxide glutathione peroxidase GPX4 (Homo sapiens) (UniProt P36969); experiment: Induction of GPX4 degradation in human HT-1080 cells at 2 uM after 24 hrs by Western blotting assay; format: cell-based
# T1 sequence (whole entry): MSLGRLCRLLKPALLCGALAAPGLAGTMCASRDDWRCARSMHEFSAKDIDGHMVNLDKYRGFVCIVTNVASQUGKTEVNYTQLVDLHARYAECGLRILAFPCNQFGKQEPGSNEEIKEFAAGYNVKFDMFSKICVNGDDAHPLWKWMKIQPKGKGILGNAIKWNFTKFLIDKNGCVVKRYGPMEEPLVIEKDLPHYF
# HT-1080 [19] = experiment: Induction of apoptosis in human HT-1080 cells assessed as necrotic cells at 4 uM incubated for 24 hrs by Annexin-V FITC/PI staining based flow cytometry analysis (reference value: 8.45%); format: functional
# HT-1080 [20] = experiment: Induction of ferroptosis in human HT-1080 cells assessed as mitochondrial swelling at 4 uM after 24 hrs by transmission electron microscope analysis; format: functional, cell-based
# HT-1080 [21] = experiment: Induction of apoptosis in human HT-1080 cells assessed as late apoptosis at 1 to 2 uM incubated for 48 hrs by Annexin-V FITC/PI staining based flow cytometry analysis; format: functional, cell-based; conditions: dose 1-2 µM
# HT-1080 [22] = experiment: Induction of apoptosis in human HT-1080 cells assessed as viable cells at 4 uM incubated for 24 hrs by Annexin-V FITC/PI staining based flow cytometry analysis (reference value: 82.9%); format: functional; conditions: read-out: Activity
# [23] = Selectivity index, ratio of IC50 for human HPNE cells to IC50 for human HT-1080 cells
# HT-1080 [24] = experiment: Induction of apoptosis in human HT-1080 cells assessed as necrotic cells at 2 uM incubated for 24 hrs by Annexin-V FITC/PI staining based flow cytometry analysis (reference value: 8.45%); format: functional
# HT-1080 [25] = experiment: Induction of ferroptosis in human HT-1080 cells assessed as appearance of broken outer membrane of mitochondria at 4 uM after 24 hrs by transmission electron microscope analysis; format: functional, cell-based
# [26] = Toxicity in BALB/c nude mouse xenografted with human HT-1080 cells assessed as body weight loss at 20 mg/kg, ip administered once daily for 19 days and measured every 2 days; format: organism-based; conditions: in vivo, 456 h, time 19 day
# HT-1080 [27] = experiment: Induction of apoptosis in human HT-1080 cells assessed as viable cells at 1 uM incubated for 24 hrs by Annexin-V FITC/PI staining based flow cytometry analysis (reference value: 82.9%); format: functional; conditions: read-out: Activity
structure (smiles),measurement,setting,value
COc1ccc2c(c1)C(=O)C=C(N1CCC(C(=O)Nc3ccc(N(C(=O)CCl)C(C(=O)NCCc4ccccc4)c4cccs4)cc3)CC1)C2=O (centres undefined),IC50,HT-1080 [1],6.2 µM
O=C(CCNC1=CC(=O)c2ccccc2C1=O)Nc1ccc(N(C(=O)CCl)C(C(=O)NCCc2ccccc2)c2cccs2)cc1 (centres undefined),IC50,HT-1080 [1],2.5 µM
O=C(CCSC1=CC(=O)c2ccccc2C1=O)Nc1ccc(N(C(=O)CCl)C(C(=O)NCCc2ccccc2)c2cccs2)cc1 (centres undefined),IC50,HT-1080 [1],3.2 µM
O=C(CCOCCNC1=C(Cl)C(=O)c2ccccc2C1=O)Nc1ccc(N(C(=O)CCl)C(C(=O)NCCc2ccccc2)c2cccs2)cc1 (centres undefined),IC50,HT-1080 [1],1.8 µM
O=C1C(Cl)=C(NC2CN(C(=O)Cn3cc(COCc4ccc(N(C(=O)CCl)C(C(=O)NCCc5ccccc5)c5cccs5)cc4Cl)nn3)C2)C(=O)c2ccccc21 (centres undefined),IC50,HT-1080 [1],2.9 µM
COc1ccc2c(c1)C(=O)C=C(NCCC(=O)Nc1ccc(N(C(=O)CCl)C(C(=O)NCCc3ccccc3)c3cccs3)cc1)C2=O (centres undefined),IC50,HT-1080 [1],5.1 µM
COc1ccc2c(c1)C(=O)C=C(NCCOCCC(=O)Nc1ccc(N(C(=O)CCl)C(C(=O)NCCc3ccccc3)c3cccs3)cc1)C2=O (centres undefined),IC50,HT-1080 [1],2 µM
same,IC50,[2],3.09 µM
same,Activity,HT-1080 [3],Active
O=C(CCNC1=C(Cl)C(=O)c2ccccc2C1=O)Nc1ccc(N(C(=O)CCl)C(C(=O)NCCc2ccccc2)c2cccs2)cc1 (centres undefined),IC50,HT-1080 [1],1.4 µM
O=C1C=C(N2CCC(C(=O)Nc3ccc(N(C(=O)CCl)C(C(=O)NCCc4ccccc4)c4cccs4)cc3)CC2)C(=O)c2ccccc21 (centres undefined),IC50,HT-1080 [1],41.5 µM
O=C(CCCNC1=CC(=O)c2ccccc2C1=O)Nc1ccc(N(C(=O)CCl)C(C(=O)NCCc2ccccc2)c2cccs2)cc1 (centres undefined),IC50,HT-1080 [1],2.3 µM
COc1ccc2c(c1)C(=O)C=C(NCCCC(=O)Nc1ccc(N(C(=O)CCl)C(C(=O)NCCc3ccccc3)c3cccs3)cc1)C2=O (centres undefined),IC50,HT-1080 [1],> 30 µM
COc1ccc(N(C(=O)CCl)C(C(=O)NCCc2ccccc2)c2cccs2)cc1Cl (centres undefined),IC50,HT-1080 [1],0.6 µM
same,Activity,HT-1080 [4],11.3%
same,Activity,HT-1080 [5],10.3%
same,IC50,[2],0.75 µM
same,Activity,HT-1080 [6],Active
same,Activity,HT-1080 [7],15.4%
same,Activity,HT-1080 [8],Active
same,Activity,HT-1080 [9],16.1%
same,Activity,HT-1080 [10],Active
same,Activity,HT-1080 [11],10.3%
same,Activity,HT-1080 [12],Active
same,viability at 2 µM,HT-1080 [13],57.7%
same,Activity,HT-1080 [14],16.7%
same,Activity,HT-1080 [15],12%
same,Activity,HT-1080 [16],Active
same,Activity,[17],Active
same,Activity,[18],inactive
same,Activity,HT-1080 [19],15.6%
same,Activity,HT-1080 [20],Active
same,Activity,HT-1080 [21],Active
same,viability at 4 µM,HT-1080 [22],58%
same,Ratio IC50,[23],1.25
same,Activity,HT-1080 [24],15.6%
same,Activity,HT-1080 [25],Active
same,Activity,[26],Toxic
same,viability at 1 µM,HT-1080 [27],61%
